From ChEMBL document CHEMBL1201862, “PubChem BioAssay data set” (2004)
The source made the active and inactive calls.

Experiments:
[1] = biological target: T1, Calpain-2 catalytic subunit (Sus scrofa, UniProt P43367); experiment: m-calpain protease blockers, concentration series – biochemical, fluorogenic peptide substrate, dose response (AID 1420); type: functional
T1 sequence (P43367 whole entry): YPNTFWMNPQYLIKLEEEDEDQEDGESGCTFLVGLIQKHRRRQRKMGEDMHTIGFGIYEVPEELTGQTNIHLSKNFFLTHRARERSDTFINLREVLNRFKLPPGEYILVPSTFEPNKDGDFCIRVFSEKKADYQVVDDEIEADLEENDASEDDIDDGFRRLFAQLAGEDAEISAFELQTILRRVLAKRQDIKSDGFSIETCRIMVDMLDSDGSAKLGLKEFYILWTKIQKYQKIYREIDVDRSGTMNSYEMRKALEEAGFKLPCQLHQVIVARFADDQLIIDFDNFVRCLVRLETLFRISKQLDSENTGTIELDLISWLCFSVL

[2] = biological target: T2, Short transient receptor potential channel 4 (Mus musculus, UniProt Q9QUQ5); experiment: block of DAMGO-driven TRPC4 calcium entry – cell-based, HEK293 TRPC4/mu-opioid, Fluo-4 calcium, dose response (AID 434942); type: functional;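 further: potency of inhibitors blocking the TRPC4 calcium response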
T2 sequence (Q9QUQ5 whole entry): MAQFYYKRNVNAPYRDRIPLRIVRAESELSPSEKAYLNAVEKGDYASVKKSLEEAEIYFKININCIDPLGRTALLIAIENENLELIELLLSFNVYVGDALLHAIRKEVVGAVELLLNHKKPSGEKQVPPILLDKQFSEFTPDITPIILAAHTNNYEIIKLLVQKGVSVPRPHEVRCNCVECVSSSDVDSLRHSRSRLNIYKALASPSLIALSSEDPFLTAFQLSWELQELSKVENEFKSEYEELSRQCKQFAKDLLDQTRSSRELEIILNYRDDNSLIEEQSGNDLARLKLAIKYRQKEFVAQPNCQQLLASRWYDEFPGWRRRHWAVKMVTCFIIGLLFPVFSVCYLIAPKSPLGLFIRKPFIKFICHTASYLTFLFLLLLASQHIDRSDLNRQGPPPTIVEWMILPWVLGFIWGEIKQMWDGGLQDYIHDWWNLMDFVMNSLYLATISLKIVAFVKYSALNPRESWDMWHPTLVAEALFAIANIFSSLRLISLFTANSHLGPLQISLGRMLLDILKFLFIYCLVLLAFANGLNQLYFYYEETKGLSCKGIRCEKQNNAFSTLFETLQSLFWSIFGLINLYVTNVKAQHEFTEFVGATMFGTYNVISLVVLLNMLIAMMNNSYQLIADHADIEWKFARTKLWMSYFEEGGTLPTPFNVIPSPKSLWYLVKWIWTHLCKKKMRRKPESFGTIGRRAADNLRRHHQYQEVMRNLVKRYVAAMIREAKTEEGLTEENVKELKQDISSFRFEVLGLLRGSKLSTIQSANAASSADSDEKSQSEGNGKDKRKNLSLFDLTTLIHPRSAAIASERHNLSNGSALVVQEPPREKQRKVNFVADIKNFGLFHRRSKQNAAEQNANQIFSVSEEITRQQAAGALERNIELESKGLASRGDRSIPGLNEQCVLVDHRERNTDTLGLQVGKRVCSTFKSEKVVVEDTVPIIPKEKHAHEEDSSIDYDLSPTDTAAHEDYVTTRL

Cytochrome P450 2C9 = Cytochrome P450 2C9 (Homo sapiens, UniProt P11712); conditions: Potency
cells [3] = type: functional, cell-based
cells [4] = type: functional, cell-based; remark: listed apart in the source
[5] = Luminescence Cell-Based Dose Response HTS to Identify Activators of Luciferase Translation or Activity in H4 […] Cells. [Related pubchem assays: 1829 (Project Summary), 1814 (Primary HTS)]; type: functional
Coagulation factor XII = biological target: T3, Coagulation factor XII (Homo sapiens, UniProt P00748); type: functional;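 further: activated factor XIIa alpha cleaving a fluorogenic AMC peptide substrate; inhibitor potency from loss of enzyme activity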
T3 sequence (P00748 whole entry): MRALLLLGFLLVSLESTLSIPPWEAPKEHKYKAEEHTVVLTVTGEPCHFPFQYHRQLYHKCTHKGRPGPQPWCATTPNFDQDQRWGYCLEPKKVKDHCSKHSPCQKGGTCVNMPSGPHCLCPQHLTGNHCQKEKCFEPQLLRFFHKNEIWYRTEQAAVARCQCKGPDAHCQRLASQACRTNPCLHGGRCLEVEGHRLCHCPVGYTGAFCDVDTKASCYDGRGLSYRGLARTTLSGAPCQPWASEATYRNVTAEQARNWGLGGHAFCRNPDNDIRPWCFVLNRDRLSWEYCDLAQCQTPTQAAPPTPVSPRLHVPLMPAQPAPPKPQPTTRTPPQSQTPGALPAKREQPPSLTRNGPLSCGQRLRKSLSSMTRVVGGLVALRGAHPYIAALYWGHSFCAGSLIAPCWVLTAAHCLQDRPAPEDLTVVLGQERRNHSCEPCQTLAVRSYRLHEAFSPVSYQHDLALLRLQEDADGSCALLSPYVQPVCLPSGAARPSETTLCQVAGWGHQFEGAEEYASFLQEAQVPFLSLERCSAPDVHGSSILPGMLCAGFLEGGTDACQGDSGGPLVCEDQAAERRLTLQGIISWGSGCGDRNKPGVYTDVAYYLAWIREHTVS

[6] = Luminescence Cell-Based Dose Confirmation HTS to Identify Activators of 5'UTR Stem-Loop Driven Alpha-Synuclein mRNA Translation in H4 Neuroglioblastoma Cells. [Related pubchem assays: 1829 (Project Summary), 1814 (Primary HTS)]; type: functional
H4 = experiment: Luminescence Cell-Based Dose Response HTS to Identify Activators of 5'UTR Stem-Loop Driven Prion Protein mRNA Translation in H4 Neuroglioblastoma Cells. [Related pubchem assays: 1829 (Project Summary), 1814 (Primary HTS)]; type: functional; conditions: Homo sapiens
[7] = biological target: T4, Mannose-6-phosphate isomerase (Homo sapiens, UniProt P34949); experiment: MPI inhibition at elevated mannose 6-phosphate – biochemical, fluorescence intensity, high mannose 6-phosphate, primary screen (AID 1220)
T4 sequence (P34949 whole entry): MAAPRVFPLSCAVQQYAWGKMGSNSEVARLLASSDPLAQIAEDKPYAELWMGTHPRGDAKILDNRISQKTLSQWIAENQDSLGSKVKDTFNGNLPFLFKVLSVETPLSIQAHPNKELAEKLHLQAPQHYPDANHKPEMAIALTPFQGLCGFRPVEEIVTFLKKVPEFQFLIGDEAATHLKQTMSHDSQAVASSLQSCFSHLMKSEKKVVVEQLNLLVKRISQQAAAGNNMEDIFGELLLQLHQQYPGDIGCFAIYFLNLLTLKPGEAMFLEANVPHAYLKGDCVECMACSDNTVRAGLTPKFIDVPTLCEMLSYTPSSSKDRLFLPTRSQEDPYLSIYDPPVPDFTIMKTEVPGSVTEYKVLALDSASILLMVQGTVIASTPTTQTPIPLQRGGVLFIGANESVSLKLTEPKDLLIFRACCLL

Large T antigen = Large T antigen (Simian virus 40, UniProt P03070); type: functional, Betapolyomavirus macacae;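 further: Confirmatory-stage PubChem screen for compounds that inhibit SV40 T antigen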
Nonstructural protein 1 = Nonstructural protein 1 (Influenza A virus, UniProt Q194T2); type: functional, Influenza A virus (A/California/07/2009(H1N1))
H9c2 = experiment: cells; type: functional, cell-based; conditions: Rattus norvegicus, H9c2, Myocardium;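 further: confirmatory concentration-response retest of ultra-high-throughput screening hits for modulation of myocardial damage; cell death induced by hydrogen peroxide oxidative stress; compound pretreatment for 60 min then peroxide exposure for 2 h; potency is for protecting the cells against peroxide damage rather than for killing them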
[8] = test system: Streptococcus sp. 'group A'; experiment: Streptococcus pyogenes SK(-)GAS viability under kanamycin – luminescence, BacTiterGlo, confirmation, counter-screen for streptokinase expression inhibitor project, dose response (AID 1900); type: functional, organism-based
[9] = Trypanosoma cruzi growth suppression in host cells – NIH3T3 host cells, beta-gal luminescence, confirmation (AID 2044); type: functional, cell-based;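 further: intracellular parasites grown in NIH/3T3 mouse fibroblasts as host cells; luminescent beta-galactosidase reporter signal from transgenic T. cruzi replicating inside host cells; inhibitors lower the luminescence signal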
Vero = experiment: cells; type: functional; conditions: Chlorocebus sabaeus
[10] = NIH-3T3 fibroblast cytotoxicity, dose response, cytotoxicity control, cell-based, fluorescence, Alamar Blue, secondary assay (AID 2327); type: functional;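 further: NIH-3T3 mouse fibroblasts cultured with fluconazole at 8 µg/mL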
Streptococcus = experiment: GAS UMAA2166 growth inhibition – luminescence, BacTiterGlo, counter-screen for streptokinase expression inhibitor project, dose response (AID 1915); type: functional, organism-based;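 further: potency for reduction of bacterial viability or growth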
[11] = fluconazole-exposed Candida albicans growth modulators – fluorescence, retest, confirmation (AID 2467); type: functional, cell-based
[12] = NIH3T3 cell viability loss – ATP luminescence, mouse fibroblasts, counter-screen, dose response (AID 2010); type: functional, cell-based;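 further: cells exposed to compound for about 90 hours before reading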

Large T antigen, sequence (P03070 whole entry): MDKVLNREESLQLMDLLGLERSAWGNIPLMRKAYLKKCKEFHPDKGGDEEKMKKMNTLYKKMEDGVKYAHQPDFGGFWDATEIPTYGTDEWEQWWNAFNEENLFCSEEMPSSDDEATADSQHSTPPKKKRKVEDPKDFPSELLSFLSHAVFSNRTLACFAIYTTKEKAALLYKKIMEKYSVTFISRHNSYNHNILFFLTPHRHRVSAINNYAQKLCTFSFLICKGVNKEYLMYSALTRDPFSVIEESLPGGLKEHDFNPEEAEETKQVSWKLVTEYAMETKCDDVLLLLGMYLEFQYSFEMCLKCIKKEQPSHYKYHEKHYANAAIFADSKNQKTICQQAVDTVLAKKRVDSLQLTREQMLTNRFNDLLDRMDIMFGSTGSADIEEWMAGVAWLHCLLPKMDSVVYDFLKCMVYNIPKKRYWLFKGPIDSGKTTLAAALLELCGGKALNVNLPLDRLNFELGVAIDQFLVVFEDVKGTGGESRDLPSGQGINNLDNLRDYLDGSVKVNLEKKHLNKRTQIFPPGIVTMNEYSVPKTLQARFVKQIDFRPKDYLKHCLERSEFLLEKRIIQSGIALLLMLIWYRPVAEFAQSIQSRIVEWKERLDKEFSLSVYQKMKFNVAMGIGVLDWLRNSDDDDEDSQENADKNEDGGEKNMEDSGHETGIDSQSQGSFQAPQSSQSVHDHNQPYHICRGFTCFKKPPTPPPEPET
Cytochrome P450 2C9, sequence (P11712 whole entry): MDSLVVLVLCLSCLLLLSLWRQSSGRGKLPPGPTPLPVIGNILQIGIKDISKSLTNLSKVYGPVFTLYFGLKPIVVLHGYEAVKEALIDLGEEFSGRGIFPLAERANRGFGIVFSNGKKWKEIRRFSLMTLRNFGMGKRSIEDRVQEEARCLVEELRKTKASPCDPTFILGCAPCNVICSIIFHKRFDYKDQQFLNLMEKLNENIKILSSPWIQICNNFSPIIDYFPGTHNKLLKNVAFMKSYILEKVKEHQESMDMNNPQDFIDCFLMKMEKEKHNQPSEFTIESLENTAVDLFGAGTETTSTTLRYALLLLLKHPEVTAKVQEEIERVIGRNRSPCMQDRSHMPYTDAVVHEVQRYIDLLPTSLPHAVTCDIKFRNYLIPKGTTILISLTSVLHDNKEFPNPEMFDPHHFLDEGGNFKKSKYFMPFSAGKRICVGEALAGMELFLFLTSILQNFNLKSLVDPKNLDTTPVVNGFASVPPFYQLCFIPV
Nonstructural protein 1, sequence (Q194T2 whole entry): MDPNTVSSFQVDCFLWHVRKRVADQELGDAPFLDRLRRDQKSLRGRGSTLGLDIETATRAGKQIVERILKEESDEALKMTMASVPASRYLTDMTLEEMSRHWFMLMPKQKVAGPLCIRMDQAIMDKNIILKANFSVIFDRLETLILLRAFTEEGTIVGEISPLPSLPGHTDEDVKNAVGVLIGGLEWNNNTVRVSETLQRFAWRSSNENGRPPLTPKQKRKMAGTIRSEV

In the case of `Cc1cc(C)nc(N=C(N)N(Cc2ccccc2)Cc2ccccc2)n1`, the IC50 [1] is reported as > 50 µM (not active) and the EC50 [2] is reported as 1.5 µM (active).
For `NCCC[C@@H](CC(=O)N[C@@H]1CCCC[C@H]1C(=O)N[C@H](CC(=O)N[C@@H](CCC(=O)O)CC(=O)O)Cc1c[nH]c2ccccc12)NC(=O)C[C@H](CO)NC(=O)[C@@H]1CCCC[C@H]1N`, the AC50 (Cytochrome P450 2C9) was 31.6 µM (inconclusive).
With `O=C(c1ccc(F)cc1)N(Cc1cccs1)C1CCS(=O)(=O)C1` (stereo not drawn) the EC50 (cells [3]) was > 350 µM (not active) and the EC50 (cells [4]) was > 350 µM (not active).
For `CCOC(=O)/C(C#N)=C/N=c1/ccc(C)cn1C`, the EC50 [5] was 23.8 µM (active), the IC50 (Coagulation factor XII) was > 50 µM (inconclusive) and the EC50 [6] was 53.5 µM (active). For the same molecule, the EC50 (H4) was > 120 µM (not active).
In the case of `COc1cc2c(cc1OC)C(C)N(S(=O)(=O)c1ccc(Cl)nc1)CC2` (stereo not drawn), the EC50 (cells [3]) is reported as > 350 µM (not active) and the EC50 (cells [4]) is reported as > 350 µM (not active).
With `C/C(N)=C(/C#N)C(=O)COC(=O)CC12CC3CC(CC(C3)C1)C2` the IC50 [1] was 12 µM (not active) and the EC50 [2] was 1.5 µM (active).
In the case of `N=C(NOC(=O)c1ccc(Cl)c([N+](=O)[O-])c1)c1ccccn1`, the IC50 (Coagulation factor XII) is reported as > 50 µM (inactive).
For `COc1ccc(-c2ccc(C(=O)O)o2)c([N+](=O)[O-])c1`, the IC50 [7] was > 50 µM (not active).
In the case of `CC(C)C(NC(=O)c1ccc(C(C)(C)C)cc1)C(=O)NCC(c1ccccc1)N(C)C` (stereo not drawn), the EC50 [2] is reported as 0.168 µM (active).
For `COc1ccc(NC2CCCN(C(=O)c3cccc(C(F)(F)F)c3)C2)cc1OC` (stereo not drawn), the IC50 (Large T antigen) was 44.1 µM (active).
With `CC(C)(C)Nc1c([N+](=O)[O-])ccc2c1=NC1(CCCCC1)[N+]=2[O-]` the IC50 [7] was > 50 µM (not active) and the IC50 (Nonstructural protein 1) was 18.1 µM (active).
With `COc1cc(NS(=O)(=O)c2ccc3ccccc3c2)c2ncccc2c1` the IC50 (H9c2) was > 79 µM (inactive), the EC50 [8] was 0.412 µM (active) and the EC50 [9] was 0.342 µM (active). The CC50 (Vero) was > 25 µM (active), the EC50 [10] was > 160 µM (inactive) and the EC50 (Streptococcus) was 7.28 µM (active). For the same molecule, the EC50 [11] was 3.98 µM (active), the EC50 [12] was 1.09 µM (active) and the EC50 [2] was 0.668 µM (active).
